Values quoted from earlier work, collected in patent US10398705B2, “Pharmaceutical tablet formulation for the veterinary medical sector, method of production and use thereof” (BOEHRINGER INGELHEIM VETMEDICA GMBH, priority 2012, dated 2019).

Conditions: known property; background description

Row | solubility | SMILES
1 | poor and pH-dependent solubility | COc1ccc(-c2nc3ccc(C4=NNC(=O)CC4C)cc3[nH]2)cc1 (racemic) [pimobendan, (RS)-6-[2-(4-methoxyphenyl)-1H-benzimidazol-5-yl]-5-methyl-4,5-dihydropyridazin-3(2H)-one]
2 | well water-soluble | CCOC(=O)[C@H](CCc1ccccc1)N[C@H]1CCc2ccccc2N(CC(=O)O)C1=O (relative stereo) [benazepril, [S—(R*,R*J]-3-[[1-(ethoxycarbonyl)-3-phenylpropyl]amino]-2,3,4,5-tetrahydro-2-oxo-1H-1-benzazepin-1-acetic acid]
